Measurements as given in patent publication US6472165B1, “Modulatory binding site in potassium channels for screening and finding new active ingredients” (Arzneimittelwerk Dresden GmbH, priority 1999, dated 2002).

Experiments:
r-erg1 = target: T1, r-erg1 (Rattus norvegicus, UniProt O08962); assay: Effect of retigabine on cloned potassium channels, patch clamp; assay type: cell-based; conditions: r-erg1, CHO cells
T1 construct: expressed in transfected cells; host or cells: CHO cells (liposome cDNA transfection)
T1 sequence (O08962 1-1163): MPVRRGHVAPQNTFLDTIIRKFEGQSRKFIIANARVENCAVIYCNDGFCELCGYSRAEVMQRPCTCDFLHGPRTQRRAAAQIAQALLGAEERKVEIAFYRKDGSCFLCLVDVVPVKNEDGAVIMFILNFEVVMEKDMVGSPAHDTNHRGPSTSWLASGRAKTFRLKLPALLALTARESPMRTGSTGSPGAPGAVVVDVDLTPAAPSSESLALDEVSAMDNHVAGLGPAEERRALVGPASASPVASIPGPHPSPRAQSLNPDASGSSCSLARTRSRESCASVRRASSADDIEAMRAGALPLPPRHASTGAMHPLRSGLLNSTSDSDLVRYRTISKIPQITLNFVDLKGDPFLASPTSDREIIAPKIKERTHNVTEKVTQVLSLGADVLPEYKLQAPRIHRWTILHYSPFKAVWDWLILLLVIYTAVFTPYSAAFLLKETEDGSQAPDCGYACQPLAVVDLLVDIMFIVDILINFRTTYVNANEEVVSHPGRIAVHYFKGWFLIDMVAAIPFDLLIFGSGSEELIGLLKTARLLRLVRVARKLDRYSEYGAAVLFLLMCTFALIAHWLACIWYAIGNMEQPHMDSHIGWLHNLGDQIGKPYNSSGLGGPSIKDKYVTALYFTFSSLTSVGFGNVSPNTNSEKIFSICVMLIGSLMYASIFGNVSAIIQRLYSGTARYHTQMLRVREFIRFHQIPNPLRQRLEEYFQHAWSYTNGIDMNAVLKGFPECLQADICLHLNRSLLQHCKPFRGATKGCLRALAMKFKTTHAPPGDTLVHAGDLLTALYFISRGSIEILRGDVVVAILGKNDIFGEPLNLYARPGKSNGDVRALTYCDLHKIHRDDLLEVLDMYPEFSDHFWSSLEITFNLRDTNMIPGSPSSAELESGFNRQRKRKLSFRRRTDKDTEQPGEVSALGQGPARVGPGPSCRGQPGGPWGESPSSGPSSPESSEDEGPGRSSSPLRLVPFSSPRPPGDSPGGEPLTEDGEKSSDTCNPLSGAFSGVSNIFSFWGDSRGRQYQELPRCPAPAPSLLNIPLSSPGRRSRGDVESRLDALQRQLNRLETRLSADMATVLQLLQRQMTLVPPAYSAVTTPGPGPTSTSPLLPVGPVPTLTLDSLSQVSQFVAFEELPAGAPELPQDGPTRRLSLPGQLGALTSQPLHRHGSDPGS
Procedure: For the experiments with xenopus oocytes, the experimental amounts known to be successful for transfections i.e. 500 pg to 37 ng, of hereditary information (cRNA) for the channel to be investigated, which is known from the literature, present as clone and replicated by means of a polymerase chain reaction, was applied by pressure injection into the egg cells. After this treatment, the oocytes were placed in a nutrient medium and kept alive. After one week, the egg cells were brought individually into a recording chamber and, using the two-electrode voltage clamp method, investigated electrophysiologically. For this purpose, the egg cells, starting out from a holding potential of −80 mV, were hyperpolarized and depolarized for, in each case, 2 seconds, in 10 mV steps to different membrane potentials between −130 and +30 mV and the resulting membrane current was measured. These experiments were carried out in the presence of a control solution as well as of 1, 10 and 100 μM of retigabine and the current voltage curves obtained were compared. […] In addition, in accordance with a method already described (Rundfeldt, 1999b), retigabine was added at a concentration of 10 μM to cells, which were slightly depolarized (−60 or −50 mV), and the current induced thereby was quantified. The latter method was employed in order to quantify the currents shown in the Table and induced by retigabine. […]

KCNQ1 channel = KCNQ1 channel (Homo sapiens, UniProt P51787); conditions: literature, Wang et al.; cited from earlier work
M channel (=KCNQ2+KCNQ3) = M channel (=KCNQ2+KCNQ3) (Homo sapiens, UniProt O43525+O43526); conditions: literature, Wang et al.; cited from earlier work
Kv4.3 = target: T2, Kv4.3 (Homo sapiens, UniProt Q9UK17); conditions: literature, Wang et al.; cited from earlier work
T2 sequence (Q9UK17 1-655): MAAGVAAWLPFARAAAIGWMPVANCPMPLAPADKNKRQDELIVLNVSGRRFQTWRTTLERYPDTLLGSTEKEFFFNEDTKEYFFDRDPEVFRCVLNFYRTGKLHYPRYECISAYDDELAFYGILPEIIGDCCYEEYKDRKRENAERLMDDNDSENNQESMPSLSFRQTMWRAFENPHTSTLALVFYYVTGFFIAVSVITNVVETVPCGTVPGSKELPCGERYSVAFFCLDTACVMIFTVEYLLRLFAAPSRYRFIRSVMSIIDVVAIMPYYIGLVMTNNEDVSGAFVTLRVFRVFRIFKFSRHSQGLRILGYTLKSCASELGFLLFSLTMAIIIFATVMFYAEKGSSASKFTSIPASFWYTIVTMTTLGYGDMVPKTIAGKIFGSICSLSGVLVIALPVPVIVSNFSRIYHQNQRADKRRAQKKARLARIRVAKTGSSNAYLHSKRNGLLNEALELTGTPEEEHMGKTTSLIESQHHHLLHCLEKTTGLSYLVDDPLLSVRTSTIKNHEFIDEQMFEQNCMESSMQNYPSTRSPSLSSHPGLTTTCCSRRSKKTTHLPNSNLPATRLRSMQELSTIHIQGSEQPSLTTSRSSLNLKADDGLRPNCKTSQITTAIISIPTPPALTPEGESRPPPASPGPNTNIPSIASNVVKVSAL

erg1 = erg1 (Homo sapiens, UniProt Q12809); conditions: literature, Wang et al.; cited from earlier work
eag1 = target: T3, eag1 (Homo sapiens, UniProt O95259); conditions: literature, Wang et al.; cited from earlier work
T3 sequence (O95259 1-989): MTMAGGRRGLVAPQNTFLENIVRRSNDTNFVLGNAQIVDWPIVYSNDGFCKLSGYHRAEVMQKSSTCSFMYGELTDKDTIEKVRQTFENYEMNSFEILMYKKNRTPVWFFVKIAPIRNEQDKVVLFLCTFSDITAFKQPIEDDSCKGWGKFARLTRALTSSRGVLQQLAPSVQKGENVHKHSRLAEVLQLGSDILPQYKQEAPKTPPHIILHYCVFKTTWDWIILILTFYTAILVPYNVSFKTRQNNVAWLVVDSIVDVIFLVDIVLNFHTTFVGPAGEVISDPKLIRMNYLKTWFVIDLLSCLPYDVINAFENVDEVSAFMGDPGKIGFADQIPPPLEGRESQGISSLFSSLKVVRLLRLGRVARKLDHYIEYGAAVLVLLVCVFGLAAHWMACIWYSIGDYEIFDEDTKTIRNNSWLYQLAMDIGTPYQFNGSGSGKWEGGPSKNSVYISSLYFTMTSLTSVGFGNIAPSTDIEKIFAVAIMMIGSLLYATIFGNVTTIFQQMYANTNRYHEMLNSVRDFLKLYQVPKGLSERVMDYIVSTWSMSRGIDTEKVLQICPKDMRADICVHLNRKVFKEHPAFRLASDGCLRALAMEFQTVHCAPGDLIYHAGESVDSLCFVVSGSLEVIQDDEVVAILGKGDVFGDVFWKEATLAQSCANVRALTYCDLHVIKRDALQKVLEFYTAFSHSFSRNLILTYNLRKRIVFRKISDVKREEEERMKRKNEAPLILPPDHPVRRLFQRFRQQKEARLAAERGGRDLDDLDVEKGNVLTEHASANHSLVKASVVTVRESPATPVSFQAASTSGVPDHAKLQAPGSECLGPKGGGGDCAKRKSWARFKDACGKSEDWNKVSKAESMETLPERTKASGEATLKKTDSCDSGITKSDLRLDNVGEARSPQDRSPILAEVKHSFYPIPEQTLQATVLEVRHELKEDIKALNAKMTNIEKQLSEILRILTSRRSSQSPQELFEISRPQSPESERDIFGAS

elk1 = conditions: literature, Wang et al.; cited from earlier work
erg3 = target: T4, erg3 (Homo sapiens, UniProt Q9NS40); conditions: literature, Wang et al.; cited from earlier work
T4 sequence (Q9NS40 1-1196): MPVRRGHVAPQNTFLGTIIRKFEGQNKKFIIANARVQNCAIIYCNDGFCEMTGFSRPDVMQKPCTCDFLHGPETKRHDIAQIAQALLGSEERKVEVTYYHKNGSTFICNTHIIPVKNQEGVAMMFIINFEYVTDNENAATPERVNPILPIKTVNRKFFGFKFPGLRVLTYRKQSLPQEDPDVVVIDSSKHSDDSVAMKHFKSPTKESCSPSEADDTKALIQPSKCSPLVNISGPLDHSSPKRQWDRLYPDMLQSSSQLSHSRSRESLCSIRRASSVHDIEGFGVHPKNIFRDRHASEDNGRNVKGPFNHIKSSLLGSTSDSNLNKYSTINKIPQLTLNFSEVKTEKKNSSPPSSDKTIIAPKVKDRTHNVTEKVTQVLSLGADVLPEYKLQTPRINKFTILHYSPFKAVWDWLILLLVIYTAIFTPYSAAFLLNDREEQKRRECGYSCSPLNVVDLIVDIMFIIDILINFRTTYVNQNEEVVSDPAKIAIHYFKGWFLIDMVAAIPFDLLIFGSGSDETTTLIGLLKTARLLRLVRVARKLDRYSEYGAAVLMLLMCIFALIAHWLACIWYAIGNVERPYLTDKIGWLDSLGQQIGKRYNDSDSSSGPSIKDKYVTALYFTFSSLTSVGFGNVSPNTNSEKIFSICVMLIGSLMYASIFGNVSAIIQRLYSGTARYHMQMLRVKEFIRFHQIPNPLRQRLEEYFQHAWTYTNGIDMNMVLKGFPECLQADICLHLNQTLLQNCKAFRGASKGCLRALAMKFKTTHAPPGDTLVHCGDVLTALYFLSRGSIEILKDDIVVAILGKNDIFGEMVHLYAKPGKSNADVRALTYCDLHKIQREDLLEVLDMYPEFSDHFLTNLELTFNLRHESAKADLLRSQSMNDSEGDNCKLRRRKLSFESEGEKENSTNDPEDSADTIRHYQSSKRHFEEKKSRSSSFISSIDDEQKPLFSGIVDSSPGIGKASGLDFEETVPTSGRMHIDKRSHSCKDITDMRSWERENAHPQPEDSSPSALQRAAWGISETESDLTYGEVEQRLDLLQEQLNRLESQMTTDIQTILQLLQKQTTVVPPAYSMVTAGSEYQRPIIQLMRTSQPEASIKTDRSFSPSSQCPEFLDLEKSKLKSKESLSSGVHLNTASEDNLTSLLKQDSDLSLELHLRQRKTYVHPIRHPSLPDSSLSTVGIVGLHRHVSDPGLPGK

Kv1.2 = Kv1.2 (Homo sapiens, UniProt P16389); conditions: literature, Wang et al.; cited from earlier work
Sequence of Kv1.2 (P16389 whole entry): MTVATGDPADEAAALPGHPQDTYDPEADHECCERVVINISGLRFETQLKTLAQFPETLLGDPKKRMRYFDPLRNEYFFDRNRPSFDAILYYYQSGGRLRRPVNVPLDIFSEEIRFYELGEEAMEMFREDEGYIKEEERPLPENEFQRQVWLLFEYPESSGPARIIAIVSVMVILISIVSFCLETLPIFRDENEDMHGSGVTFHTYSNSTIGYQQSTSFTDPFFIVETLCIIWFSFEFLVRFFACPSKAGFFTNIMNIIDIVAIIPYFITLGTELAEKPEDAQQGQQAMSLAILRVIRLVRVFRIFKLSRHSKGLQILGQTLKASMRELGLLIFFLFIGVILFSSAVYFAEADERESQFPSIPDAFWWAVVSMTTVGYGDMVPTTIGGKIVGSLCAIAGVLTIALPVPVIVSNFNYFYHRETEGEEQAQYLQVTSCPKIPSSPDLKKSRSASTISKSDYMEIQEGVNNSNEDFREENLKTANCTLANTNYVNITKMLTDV

Sequence of erg1 (Q12809 whole entry): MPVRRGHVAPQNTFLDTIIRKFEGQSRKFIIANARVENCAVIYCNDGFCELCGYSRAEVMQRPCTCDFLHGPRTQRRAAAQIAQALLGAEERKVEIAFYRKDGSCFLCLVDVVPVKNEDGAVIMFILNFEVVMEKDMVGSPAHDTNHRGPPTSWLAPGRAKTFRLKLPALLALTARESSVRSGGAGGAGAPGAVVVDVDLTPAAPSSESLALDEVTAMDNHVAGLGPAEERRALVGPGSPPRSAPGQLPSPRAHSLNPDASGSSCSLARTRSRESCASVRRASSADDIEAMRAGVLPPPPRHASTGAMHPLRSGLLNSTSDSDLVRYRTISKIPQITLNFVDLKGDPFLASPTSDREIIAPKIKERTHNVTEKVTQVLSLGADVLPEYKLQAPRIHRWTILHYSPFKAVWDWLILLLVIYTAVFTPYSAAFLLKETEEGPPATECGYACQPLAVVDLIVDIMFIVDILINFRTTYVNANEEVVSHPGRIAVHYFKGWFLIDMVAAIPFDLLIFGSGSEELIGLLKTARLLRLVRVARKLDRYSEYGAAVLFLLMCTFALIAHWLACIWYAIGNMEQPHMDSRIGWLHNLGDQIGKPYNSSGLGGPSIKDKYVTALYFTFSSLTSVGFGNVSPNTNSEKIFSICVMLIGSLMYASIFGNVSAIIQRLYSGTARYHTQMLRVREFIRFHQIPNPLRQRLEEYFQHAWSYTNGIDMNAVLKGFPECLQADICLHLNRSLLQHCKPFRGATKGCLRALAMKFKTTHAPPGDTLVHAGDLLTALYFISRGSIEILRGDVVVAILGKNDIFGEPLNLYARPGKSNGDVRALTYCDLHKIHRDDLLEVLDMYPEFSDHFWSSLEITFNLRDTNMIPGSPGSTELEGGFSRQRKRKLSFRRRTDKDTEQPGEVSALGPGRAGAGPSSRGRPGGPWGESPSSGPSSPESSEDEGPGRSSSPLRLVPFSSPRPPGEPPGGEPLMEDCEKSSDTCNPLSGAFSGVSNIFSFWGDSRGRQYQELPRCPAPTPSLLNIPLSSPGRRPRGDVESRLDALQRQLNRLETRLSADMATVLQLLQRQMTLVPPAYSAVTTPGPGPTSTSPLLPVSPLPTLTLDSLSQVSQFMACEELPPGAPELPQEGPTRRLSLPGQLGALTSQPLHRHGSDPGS

| Compound | Effect of 10 μM of Retigabine (r-erg1) | Effect on KCNQ1, with affinity similar to that for the M channel (KCNQ1 channel) | Effect on the M channel (M channel (=KCNQ2+KCNQ3)) | Effect on Kv4.3, with affinity similar to that for the M channel (Kv4.3) | Effect on erg1, with affinity similar to that for the M channel (erg1) | Effect on eag1, with affinity similar to that for the M channel (eag1) | Effect on elk1, with affinity similar to that for the M channel (elk1) | Effect on erg3, with affinity similar to that for the M channel (erg3) | Effect on Kv1.2, with affinity similar to that for the M channel (Kv1.2) |
| --- | --- | --- | --- | --- | --- | --- | --- | --- | --- |
| CCOC(=O)Nc1ccc(NCc2ccc(F)cc2)cc1N [retigabine, 2-amino-4-(4-fluorobenzylamino)-1-ethoxycarbonyl-aminobenzene] | No effect |  |  |  |  |  |  |  |  |
| O=C1c2ccccc2C(Cc2ccncc2)(Cc2ccncc2)c2ccccc21 [XE991] |  | inhibits | block | inhibits |  |  |  |  |  |
| O=C1N(c2ccccc2)c2ccccc2C1(Cc1ccncc1)Cc1ccncc1 [linopirdine] |  | blocked | blocks | blocked | blocked | blocked | blocked | blocked | blocked |
